According to patent publication US12448394B2, “Heterocyclic pyrazole derivatives as type III receptor tyrosine kinase inhibitors” (DEVELOPMENT CENTER FOR BIOTECHNOLOGY, priority 2019, dated 2025):

Legend:
MET kinase = target: T1, MET kinase (Homo sapiens, UniProt P08581); test: MET kinase assay (AlphaScreen, counter screen); assay type: biochemical; settings: read-out: Ranking of IC50 values, MET
T1 construct: purchased SignalChem
In short: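 Recombinant MET kinase (1 ng) phosphorylated biotinylated poly(Glu4:Tyr1) with […] ATP (so in the source) in MOPS pH 7.0 buffer with 10 mM MgCl2, 45 min at 30 °C, stopped with EDTA. Product read by AlphaScreen; IC50 from serial dilutions run in duplicate.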

[1] = system: Molm-14 human acute myeloid leukemia cell with FLT3-ITD mutation; test: Molm-14 cell proliferation assay (CellTiter 96); assay type: cell-based; settings: Homo sapiens; Molm-14 cells, 72 hours treatment, CellTiter96; read-out: anti-proliferation activity Molm-14 (FLT3-ITD), IC50 ranking
In short: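 Molm-14 (FLT3-ITD AML) cells in RPMI 1640 with 10% heat-inactivated FBS were seeded at 25000 cells/well, incubated overnight at 37° C, 5% CO2, then treated with increasing compound concentrations for 72 hours. Viability was read as absorbance at 490 nm after 2˜4 hours with CellTiter96 AQueous One reagent.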

FLT3-D835Y mutant kinase = target: T2, FLT3-D835Y mutant kinase (Homo sapiens, UniProt P36888, D835Y); test: FLT3-D835Y mutant kinase assay (AlphaScreen); assay type: biochemical; settings: read-out: Ranking of IC50 values, FLT3-D835Y
T2 construct: purchased SignalChem
T2 sequence (P36888 27-993 D835Y): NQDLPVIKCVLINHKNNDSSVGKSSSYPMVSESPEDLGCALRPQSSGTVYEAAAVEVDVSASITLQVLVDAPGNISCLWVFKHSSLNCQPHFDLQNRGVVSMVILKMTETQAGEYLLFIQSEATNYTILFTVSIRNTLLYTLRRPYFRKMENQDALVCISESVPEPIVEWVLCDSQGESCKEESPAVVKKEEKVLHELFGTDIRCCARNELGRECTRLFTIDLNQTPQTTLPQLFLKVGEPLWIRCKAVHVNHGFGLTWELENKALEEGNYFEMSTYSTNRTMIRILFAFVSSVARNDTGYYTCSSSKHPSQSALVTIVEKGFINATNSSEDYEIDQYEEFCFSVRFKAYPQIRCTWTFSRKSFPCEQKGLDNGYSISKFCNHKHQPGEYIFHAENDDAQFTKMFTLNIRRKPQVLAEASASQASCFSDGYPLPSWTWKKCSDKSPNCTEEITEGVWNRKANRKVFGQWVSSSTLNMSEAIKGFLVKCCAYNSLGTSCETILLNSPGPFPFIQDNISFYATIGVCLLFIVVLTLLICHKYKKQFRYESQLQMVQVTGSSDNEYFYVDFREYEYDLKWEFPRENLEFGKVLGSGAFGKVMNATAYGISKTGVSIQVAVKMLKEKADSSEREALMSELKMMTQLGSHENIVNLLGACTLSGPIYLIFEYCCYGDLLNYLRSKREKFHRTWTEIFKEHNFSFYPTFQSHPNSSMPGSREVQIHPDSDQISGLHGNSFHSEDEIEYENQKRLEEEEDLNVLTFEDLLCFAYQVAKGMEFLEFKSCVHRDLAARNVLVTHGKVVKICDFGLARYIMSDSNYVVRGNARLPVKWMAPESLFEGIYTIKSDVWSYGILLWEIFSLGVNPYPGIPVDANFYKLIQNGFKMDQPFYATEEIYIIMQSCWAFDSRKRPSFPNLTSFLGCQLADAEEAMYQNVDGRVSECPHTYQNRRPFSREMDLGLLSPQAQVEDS
In short: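 Recombinant FLT3-D835Y (1 ng) phosphorylated biotin-poly(Glu4:Tyr1) at 10 μM ATP, pH 7.0 MOPS buffer with 10 mM MgCl2, for 30 min at 30 °C, stopped with EDTA. Product was read by AlphaScreen. IC50 came from serial dilutions run in duplicate.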

T1 sequence (P08581 25-1390): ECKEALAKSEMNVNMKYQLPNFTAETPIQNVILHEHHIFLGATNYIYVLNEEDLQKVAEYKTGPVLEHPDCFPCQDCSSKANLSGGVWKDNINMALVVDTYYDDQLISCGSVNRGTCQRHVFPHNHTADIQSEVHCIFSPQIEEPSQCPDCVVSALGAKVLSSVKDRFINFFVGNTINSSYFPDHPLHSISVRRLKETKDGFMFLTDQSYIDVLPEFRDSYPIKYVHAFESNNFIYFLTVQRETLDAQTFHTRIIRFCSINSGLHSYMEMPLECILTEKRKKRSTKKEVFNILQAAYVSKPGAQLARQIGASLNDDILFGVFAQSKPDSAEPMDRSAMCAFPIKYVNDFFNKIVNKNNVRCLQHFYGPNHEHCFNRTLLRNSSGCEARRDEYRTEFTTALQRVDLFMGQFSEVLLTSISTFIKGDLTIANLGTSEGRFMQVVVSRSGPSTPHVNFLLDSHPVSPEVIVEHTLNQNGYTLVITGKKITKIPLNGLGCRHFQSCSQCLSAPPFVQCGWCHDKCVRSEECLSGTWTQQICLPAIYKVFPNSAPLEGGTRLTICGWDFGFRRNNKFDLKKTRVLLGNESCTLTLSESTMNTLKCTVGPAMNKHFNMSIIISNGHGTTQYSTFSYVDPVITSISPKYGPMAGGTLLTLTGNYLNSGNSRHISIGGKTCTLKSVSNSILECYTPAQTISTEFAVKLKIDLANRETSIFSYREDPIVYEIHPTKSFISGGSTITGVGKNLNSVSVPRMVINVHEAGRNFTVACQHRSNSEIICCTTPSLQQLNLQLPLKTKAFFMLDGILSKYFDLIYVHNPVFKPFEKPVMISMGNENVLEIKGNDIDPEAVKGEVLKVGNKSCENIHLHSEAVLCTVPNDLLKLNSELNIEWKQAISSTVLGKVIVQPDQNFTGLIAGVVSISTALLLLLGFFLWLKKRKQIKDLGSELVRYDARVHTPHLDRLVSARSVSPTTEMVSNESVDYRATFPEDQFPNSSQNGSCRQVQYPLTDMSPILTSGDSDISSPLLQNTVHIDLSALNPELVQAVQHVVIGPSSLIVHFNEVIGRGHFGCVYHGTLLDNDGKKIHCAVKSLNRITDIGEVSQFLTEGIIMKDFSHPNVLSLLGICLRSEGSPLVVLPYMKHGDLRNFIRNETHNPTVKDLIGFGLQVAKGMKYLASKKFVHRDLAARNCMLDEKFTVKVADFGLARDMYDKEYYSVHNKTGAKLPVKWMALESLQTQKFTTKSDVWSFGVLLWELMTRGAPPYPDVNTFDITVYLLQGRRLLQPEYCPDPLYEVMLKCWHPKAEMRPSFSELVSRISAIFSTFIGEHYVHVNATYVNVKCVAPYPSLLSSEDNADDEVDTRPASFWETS

SMILES	IC50 (MET kinase) [nM]	IC50 [1] [nM]	IC50 (FLT3-D835Y mutant kinase) [nM]
Cn1ncc2ccc(-c3n[nH]c4c3Cc3sc(-c5ccc(CN6CCCOCC6)cc5)cc3-4)cc21 [Compound 97, 4-(4-(3-(1-methyl-1H-indazol-6-yl)-1,4-dihydro-thieno[2′,3′:4,5]cyclopenta [1,2-c]pyrazol-6-yl)benzyl)-1,4-oxazepane]	> 1000	< 30	< 1
Cn1ncc2ccc(-c3n[nH]c4c3Cc3sc(C5CCN(C(=O)CN6CCOCC6)CC5)cc3-4)cc21 [Compound 98, 1-(4-(3-(1-methyl-1H-indazol-6-yl)-1,4-dihydro-thieno[2′,3′:4,5]cyclopenta [1,2-c]pyrazol-6-yl)piperidin-1-yl)-2-morpholinoethan-1-one]	> 1000	< 30	< 1
Cn1ncc2ccc(-c3n[nH]c4c3Cc3sc(-c5ccc(CN6CCCC6)cc5)cc3-4)cc21 [Compound 99, 3-(1-methyl-1H-indazol-6-yl)-6-(4-(pyrrolidin-1-ylmethyl)phenyl)-1,4-dihydrothieno[2′,3′:4,5] cyclopenta[1,2-c]pyrazole]	> 1000	< 30	< 1
Cn1ncc2ccc(-c3n[nH]c4c3Cc3sc(-c5ccc(CN6CCCCC6)cc5)cc3-4)cc21 [Compound 100, 3-(1-methyl-1H-indazol-6-yl)-6-(4-(piperidin-1-ylmethyl)phenyl)-1,4-dihydrothieno[2′,3′:4,5] cyclopenta[1,2-c]pyrazole]	100 to 300	< 30	< 1
Cn1ncc2ccc(-c3n[nH]c4c3Cc3sc(-c5ccc(CN6CC7(COC7)C6)cc5)cc3-4)cc21 [Compound 102, 6-(4-(3-(1-methyl-1H-indazol-6-yl)-1,4-dihydro-thieno[2′,3′:4,5]cyclopenta [1,2-c]pyrazol-6-yl)benzyl)-2-oxa-6-azaspiro [3.3]heptane]	300 to 1000	< 30	< 1
COC1CN(Cc2ccc(-c3cc4c(s3)Cc3c(-c5ccc6cnn(C)c6c5)n[nH]c3-4)cc2)C1 [Compound 105, 6-(4-((3-methoxyazeti-din-1-yl)methyl)phenyl)-3-(1-methyl-1H-indazol-6-yl)-1,4-dihydrothieno [2′,3′:4,5]cyclopenta [1,2-c]pyrazole]	300 to 1000	< 30	< 1

Continued, values first:

IC50 (MET kinase) [nM]	IC50 [1] [nM]	IC50 (FLT3-D835Y mutant kinase) [nM]	SMILES
> 1000	< 30	< 1	Cn1ncc2ccc(-c3n[nH]c4c3Cc3sc(C5CCNCC5)cc3-4)cc21 [Compound 96, 3-(1-methyl-1H-indazol-6-yl)-6-(piperidin-4-yl)-1,4-dihydrothieno [2′,3′:4,5]cyclopenta [1,2-c]pyrazole]
300 to 1000	30 to 100	< 1	Cn1ncc2ccc(-c3n[nH]c4c3Cc3sc(-c5ccc(CN6CCC6)cc5)cc3-4)cc21 [Compound 103, 6-(4-(azetidin-1-ylmethyl)phenyl)-3-(1-methyl-1H-indazol-6-yl)-1,4-dihydro-thieno[2′,3′:4,5]cyclopenta [1,2-c]pyrazole]
> 1000	100 to 300	1 to 10	Cn1ncc2ccc(-c3n[nH]c4c3Cc3sc(-c5ccc(CN6CC(F)(F)C6)cc5)cc3-4)cc21 [Compound 104, 6-(4-((3,3-difluoroazeti-din-1-yl)methyl)phenyl)-3-(1-methyl-1H-indazol-6-yl)-1,4-dihydrothieno [2′,3′:4,5]cyclopenta [1,2-c]pyrazole]
